Results published in patent US20080139612A1, “Chemical Compound” (ASTRAZENECA AB, priority 2006, published 2008).

Key:
[1] = system: T-cells, chemotaxis in response to MIP-1β (CCL-4); assay: Inhibition of chemotaxis of T-cells in response to MIP-1β (CCL-4); format: cell-based; conditions: human allo-reactive T cell line; 1 nM MIP-1β; 1 hour at 37° C.; read-out: IC50, concentration which inhibited 50% of the chemotactic response
Experimental: The ability of the compound of the present invention to inhibit the chemotaxis of T-cells in response to MIP-1β (CCL-4) was measured:
An allo-reactive T cell line was generated by exposure of human peripheral blood mononuclear cells (PBMCs) to L-DR4/B7 fibroblasts (immobilised with glutaraldehyde fixation and irradiation) and subsequent expansion with IL-2 and anti-CD3. When required, the cells were grown and re-challenged with irradiated HLA-DR4+ve PBMCs and expanded with anti-CD3 and IL-2. The cells were used between day 21 and 34. 1 nM of MIP-1β plus varying concentrations of the CCR5 antagonist [^3H]1-{(3R)-3-(3,5-difluorophenyl)-3-[4-(methylsulfonyl)phenyl]propyl}-4-(2-{[4-(methylsulfonyl)phenyl]sulfonyl}ethyl)piperidine were placed in assay buffer in the bottom of a 96-well Neuroprobe Chemo TX chemotaxis plate and cells that had been loaded with a fluorescent dye and pre-incubated with varying concentration of the CCR5 antagonist were pipetted onto the surface of a 5 micron pore size membrane according to the manufacturers specifications. After 1 hour of incubation with the compound of the invention at 37° C., the unmigrated cells were washed off the surface of the plate with PBS and the […] by reading on a 96-well fluorescent plate reader. […]

CCR5 = biological target: T1, CCR5 (Homo sapiens, UniProt P51681); assay: Displacement of radio-labelled CCR5 antagonist from Allo-T cell membranes (inhibition of MIP-1β binding); conditions: membranes of human allo-reactive T cells; 2 nM [3H] CCR5 antagonist; 2 hours at room temperature; read-out: IC50, concentration which displaced 50% of bound radio-labelled CCR5 antagonist
T1 construct: After 21 to 34 days culture, the membranes were prepared from the cells; endogenous in cells; host or cells: Allo-T cells (allo-reactive T cell line from human PBMCs), membrane preparation
T1 sequence (P51681 whole entry): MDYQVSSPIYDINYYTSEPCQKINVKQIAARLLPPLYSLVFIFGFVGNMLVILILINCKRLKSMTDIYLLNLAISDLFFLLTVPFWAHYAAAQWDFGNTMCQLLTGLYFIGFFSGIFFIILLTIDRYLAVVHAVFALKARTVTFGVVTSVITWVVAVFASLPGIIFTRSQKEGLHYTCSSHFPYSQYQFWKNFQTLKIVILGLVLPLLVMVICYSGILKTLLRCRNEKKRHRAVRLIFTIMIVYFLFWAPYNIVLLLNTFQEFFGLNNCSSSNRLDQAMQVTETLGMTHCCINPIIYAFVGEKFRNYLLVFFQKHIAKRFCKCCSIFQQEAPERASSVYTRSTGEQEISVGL
Experimental: The ability of the compound of the present invention to inhibit the binding of MIP-1β (CCL-4) was measured:
An allo-reactive T cell line was generated by exposure of human peripheral blood mononuclear cells (PBMCs) to L-DR4/B7 fibroblasts (immobilised with glutaraldehyde fixation and irradiation) and subsequent expansion with anti-CD3 and IL-2 for 14 days. The resultant Allo-T cells were frozen. When required, the cells were grown and re-challenged with irradiated HLA-DR4+ve PBMCs and expanded with anti-CD3 and IL-2. After 21 to 34 days culture, the membranes were prepared from the cells. These membranes were incubated in 96-well plates with 2 nM of the radio-labelled CCR5 antagonist [^3H]1-{(3R)-3-(3,5-difluorophenyl)-3-[4-(methylsulfonyl)phenyl]propyl}-4-(2-{[4-(methylsulfonyl)phenyl]sulfonyl}ethyl)piperidine and various concentrations of the compound of the invention for 2 hours at room temperature. The plates were then harvested onto GF/B filter plates (which had been pre-soaked soaked in 0.3% PEI containing 0.2% BSA for 10 min at 4° C.) using a Packard Unifilter harvester using 10 wash steps. The amount of [^3H]1-{(3R)-3-(3,5-difluorophenyl)-3-[4-(methylsulfonyl)phenyl]propyl}-4-(2-{[4-(methylsulfonyl)phenyl]sulfonyl}ethyl)piperidine retained on the filter plates was determined by scintillation counting. […]

Row | SMILES | IC50 [1] | IC50 (CCR5)
1 | Cc1nnc(C(C)(F)F)n1C1CCN([C@H](C)C[C@@H](c2cc(F)cc(F)c2)C2CCN(S(C)(=O)=O)CC2)CC1 (single isomer, unassigned) | 0.0021 µM | 0.0034 µM
2 | Cc1nnc(C(F)(F)F)n1C1CCN(CC[C@@H](c2cc(F)cc(F)c2)C2CCN(S(C)(=O)=O)CC2)CC1 [Comparator Compound A, 1-{(3R)-3-(3,5-difluorophenyl)-3-[1-(methylsulfonyl)piperidin-4-yl]propyl}-4-[3-methyl-5-(trifluoromethyl)-4H-1,2,4-triazol-4-yl]piperidine] | 0.068 µM | 0.039 µM
